Laboratory results published in patent US10626144B2, “Peptide derivatives and uses thereof” (Nosopharm, priority 2014, dated 2020).
Like-named read-outs stand apart in the source and are kept apart here. Square brackets hold non-standard residues; d marks the D form. Peptide text beside a SMILES is read from it. * marks the point of attachment. Phe(4-tBu) = CC(C)(C)c1ccc(C[C@H](N)C(=O)O)cc1; Phe(3-Cl) = N[C@@H](Cc1cccc(Cl)c1)C(=O)O; Phe(4-Cl) = N[C@@H](Cc1ccc(Cl)cc1)C(=O)O; Phe(4-I) = N[C@@H](Cc1ccc(I)cc1)C(=O)O; Dab(3S-OH) = NC[C@H](O)[C@H](N)C(=O)O; His(τ-Me) = Cn1cnc(C[C@H](N)C(=O)O)c1; His(π-Me) = Cn1cncc1C[C@H](N)C(=O)O; 2Pal = N[C@@H](Cc1ccccn1)C(=O)O; ΔZArg = N=C(N)NCC/C=C(\N)C(=O)O; aThr = C[C@H](O)[C@H](N)C(=O)O; dOrn = NCCC[C@@H](N)C(=O)O; Pra = C#CC[C@H](N)C(=O)O; NH(CH2)4NH2 = NCCCCN*

Experiments:
[1] = system: Acinetobacter baumannii ATCC 19606; assay: MIC, broth microdilution (CLSI), reference strain; conditions: CAMHB
[2] = system: Escherichia coli ATCC 25922; assay: MIC, broth microdilution (CLSI), reference strain; conditions: CAMHB
[3] = target: N-type calcium channels (Cav2.2) (Rattus norvegicus (Rat), UniProt Q02294); assay: biochemical; assay type: binding
[4] = system: Staphylococcus aureus ATCC 13709; assay: MIC, broth microdilution (CLSI), reference strain; conditions: CAMHB
[5] = system: Pseudomonas aeruginosa ATCC 27853; assay: MIC, broth microdilution (CLSI), reference strain; conditions: CAMHB
[6] = class symbol, rat cerebral cortex, [125I]ω-conotoxin GVIA 0.001 nM, 30 minutes at room temperature, read-out: IC50 Cav2.2
[7] = value in brackets, rat cerebral cortex, [125I]ω-conotoxin GVIA 0.001 nM, read-out: IC50 Cav2.2

SMILES | Ab: MIC Acinetobacter baumannii ATCC 19606 [1] | Ec: MIC Escherichia coli ATCC 25922 [2] | IC50 [3, 6] [nM] | Sa: MIC Staphylococcus aureus ATCC 13709 [4] | Pa: MIC Pseudomonas aeruginosa ATCC 27853 [5] | IC50 [3] [nM] | IC50 [3, 7] [nM]
C[C@H](NC(=O)[C@@H](NC(=O)[C@@H](N)CCCCN)[C@@H](O)CN)C(=O)NCC(=O)N[C@H](CCCN)C(=O)N1CCC[C@H]1C(=O)N[C@@H](Cc1cnc[nH]1)C(=O)N[C@@H](CCCCN)C(=O)N/C(=C\CCNC(=N)N)C(=O)N[C@@H](CCCCN)C(=O)NCCCCN [24.1] (H-K[Dab(3S-OH)]AG[dOrn]PHK[ΔZArg]K-{NH(CH2)4NH2}) | + (≤32 μg/mL) | ++ (≤8 μg/mL) | < 30 | ++ (≤8 μg/mL) | + (≤32 μg/mL) |  | 
C[C@H](NC(=O)[C@@H](NC(=O)[C@@H](N)CCCCN)[C@@H](O)CN)C(=O)NCC(=O)N[C@H](CCCN)C(=O)N1CCC[C@H]1C(=O)N[C@@H](Cc1cncn1C)C(=O)N[C@@H](CCCCN)C(=O)N/C(=C\CCNC(=N)N)C(=O)N[C@@H](CCCCN)C(=O)NCCCCN [24.14] (H-K[Dab(3S-OH)]AG[dOrn]P[His(π-Me)]K[ΔZArg]K-{NH(CH2)4NH2}) | − (>32 μg/mL) | ++ (≤8 μg/mL) | < 30 | ++ (≤8 μg/mL) | + (≤32 μg/mL) |  | 
C[C@H](NC(=O)[C@@H](NC(=O)[C@@H](N)CCCCN)[C@@H](O)CN)C(=O)NCC(=O)N[C@H](CCCN)C(=O)N1CCC[C@H]1C(=O)N[C@@H](Cc1cn(C)cn1)C(=O)N[C@@H](CCCCN)C(=O)N/C(=C\CCNC(=N)N)C(=O)N[C@@H](CCCCN)C(=O)NCCCCN [24.15] (H-K[Dab(3S-OH)]AG[dOrn]P[His(τ-Me)]K[ΔZArg]K-{NH(CH2)4NH2}) | − (>32 μg/mL) | ++ (≤8 μg/mL) | < 30 | ++ (≤8 μg/mL) | + (≤32 μg/mL) |  | 
C[C@H](NC(=O)[C@@H](NC(=O)[C@@H](N)CCCCN)[C@@H](O)CN)C(=O)NCC(=O)N[C@H](CCCN)C(=O)N1CCC[C@H]1C(=O)N[C@@H](Cc1ccccn1)C(=O)N[C@@H](CCCCN)C(=O)N/C(=C\CCNC(=N)N)C(=O)N[C@@H](CCCCN)C(=O)NCCCCN [24.17] (H-K[Dab(3S-OH)]AG[dOrn]P[2Pal]K[ΔZArg]K-{NH(CH2)4NH2}) | − (>32 μg/mL) | ++ (≤8 μg/mL) | < 30 | ++ (≤8 μg/mL) | − (>32 μg/mL) |  | 
C[C@H](NC(=O)[C@@H](NC(=O)[C@@H](N)CCCCN)[C@@H](O)CN)C(=O)NCC(=O)N[C@H](CCCN)C(=O)N1CCC[C@H]1C(=O)N[C@@H](Cc1ccc(O)cc1)C(=O)N[C@@H](CCCCN)C(=O)N/C(=C\CCNC(=N)N)C(=O)N[C@@H](CCCCN)C(=O)NCCCCN [24.20] (H-K[Dab(3S-OH)]AG[dOrn]PYK[ΔZArg]K-{NH(CH2)4NH2}) | − (>32 μg/mL) | ++ (≤8 μg/mL) | < 30 | ++ (≤8 μg/mL) | − (>32 μg/mL) |  | 
C[C@H](NC(=O)[C@@H](NC(=O)[C@@H](N)CCCCN)[C@@H](O)CN)C(=O)NCC(=O)N[C@H](CCCN)C(=O)N1CCC[C@H]1C(=O)N[C@@H](CC(N)=O)C(=O)N[C@@H](CCCCN)C(=O)N/C(=C\CCNC(=N)N)C(=O)N[C@@H](CCCCN)C(=O)NCCCCN [24.22] (H-K[Dab(3S-OH)]AG[dOrn]PNK[ΔZArg]K-{NH(CH2)4NH2}) | − (>32 μg/mL) | ++ (≤8 μg/mL) | < 30 | ++ (≤8 μg/mL) | − (>32 μg/mL) |  | 
C#CC[C@H](NC(=O)[C@@H]1CCCN1C(=O)[C@@H](CCCN)NC(=O)CNC(=O)[C@H](C)NC(=O)[C@@H](NC(=O)[C@@H](N)CCCCN)[C@@H](O)CN)C(=O)N[C@@H](CCCCN)C(=O)N/C(=C\CCNC(=N)N)C(=O)N[C@@H](CCCCN)C(=O)NCCCCN [24.67] (H-K[Dab(3S-OH)]AG[dOrn]P[Pra]K[ΔZArg]K-{NH(CH2)4NH2}) | − (>32 μg/mL) | ++ (≤8 μg/mL) | < 30 | − (>32 μg/mL) | + (≤32 μg/mL) |  | 
C[C@H](NC(=O)[C@@H](NC(=O)[C@@H](N)CCCCN)[C@@H](O)CN)C(=O)NCC(=O)N[C@H](CCCN)C(=O)N1CCC[C@H]1C(=O)N[C@@H](Cc1cn(C)cn1)C(=O)N[C@@H](CCCCN)C(=O)N/C(=C\CCNC(=N)N)C(=O)O [24.76] (H-K[Dab(3S-OH)]AG[dOrn]P[His(τ-Me)]K[ΔZArg]-OH) | − (>32 μg/mL) | − (>32 μg/mL) | > 300 | + (≤32 μg/mL) | − (>32 μg/mL) |  | 
C[C@H](NC(=O)[C@@H](NC(=O)[C@@H](N)CCCCN)[C@@H](O)CN)C(=O)NCC(=O)N[C@H](CCCN)C(=O)N1CCC[C@H]1C(=O)N[C@@H](Cc1cccc(Cl)c1)C(=O)N[C@@H](CCCCN)C(=O)N/C(=C\CCNC(=N)N)C(=O)O [24.88] (H-K[Dab(3S-OH)]AG[dOrn]P[Phe(3-Cl)]K[ΔZArg]-OH) | − (>32 μg/mL) | ++ (≤8 μg/mL) | > 300 | ++ (≤8 μg/mL) | − (>32 μg/mL) |  | 
C[C@H](NC(=O)[C@@H](NC(=O)[C@@H](N)CCCCN)[C@@H](O)CN)C(=O)NCC(=O)N[C@H](CCCN)C(=O)N1CCC[C@H]1C(=O)N[C@@H](Cc1ccc(C(C)(C)C)cc1)C(=O)N[C@@H](CCCCN)C(=O)N/C(=C\CCNC(=N)N)C(=O)O [24.93] (H-K[Dab(3S-OH)]AG[dOrn]P[Phe(4-tBu)]K[ΔZArg]-OH) | − (>32 μg/mL) | ++ (≤8 μg/mL) | > 300 | ++ (≤8 μg/mL) | − (>32 μg/mL) |  | 
C[C@H](NC(=O)[C@@H](NC(=O)[C@@H](N)CCCCN)[C@@H](O)CN)C(=O)NCC(=O)N[C@H](CCCN)C(=O)N1CCC[C@H]1C(=O)N[C@@H](Cc1ccc(Cl)cc1)C(=O)N[C@@H](CCCCN)C(=O)N/C(=C\CCNC(=N)N)C(=O)O [24.97] (H-K[Dab(3S-OH)]AG[dOrn]P[Phe(4-Cl)]K[ΔZArg]-OH) | − (>32 μg/mL) | ++ (≤8 μg/mL) | > 300 | ++ (≤8 μg/mL) | − (>32 μg/mL) |  | 
C[C@H](NC(=O)[C@@H](NC(=O)[C@@H](N)CCCCN)[C@@H](O)CN)C(=O)NCC(=O)N[C@H](CCCN)C(=O)N1CCC[C@H]1C(=O)N[C@@H](Cc1ccc(I)cc1)C(=O)N[C@@H](CCCCN)C(=O)N/C(=C\CCNC(=N)N)C(=O)O [24.103] (H-K[Dab(3S-OH)]AG[dOrn]P[Phe(4-I)]K[ΔZArg]-OH) | − (>32 μg/mL) | ++ (≤8 μg/mL) | > 300 | ++ (≤8 μg/mL) | − (>32 μg/mL) |  | 
C[C@H](NC(=O)[C@@H](NC(=O)[C@@H](N)CCCCN)[C@@H](O)CN)C(=O)NCC(=O)N[C@H](CCCN)C(=O)N1CCC[C@H]1C(=O)N[C@@H](CC(N)=O)C(=O)N[C@@H](CCCCN)C(=O)N/C(=C\CCNC(=N)N)C(=O)O [24.112] (H-K[Dab(3S-OH)]AG[dOrn]PNK[ΔZArg]-OH) | − (>32 μg/mL) | − (>32 μg/mL) |  | + (≤32 μg/mL) | − (>32 μg/mL) | > 300 | 790
C#CC[C@H](NC(=O)[C@@H]1CCCN1C(=O)[C@@H](CCCN)NC(=O)CNC(=O)[C@H](C)NC(=O)[C@@H](NC(=O)[C@@H](N)CCCCN)[C@@H](O)CN)C(=O)N[C@@H](CCCCN)C(=O)N/C(=C\CCNC(=N)N)C(=O)O [24.135] (H-K[Dab(3S-OH)]AG[dOrn]P[Pra]K[ΔZArg]-OH) | − (>32 μg/mL) | + (≤32 μg/mL) | > 300 | + (≤32 μg/mL) | − (>32 μg/mL) |  | 
C[C@H](NC(=O)[C@@H](NC(=O)[C@@H](N)CCCCN)[C@@H](O)CN)C(=O)NCC(=O)N[C@H](CCCN)C(=O)N1CCC[C@H]1C(=O)N[C@@H](Cc1ccc(O)cc1)C(=O)N[C@@H](CCCCN)C(=O)N/C(=C\CCNC(=N)N)C(=O)O [24.138] (H-K[Dab(3S-OH)]AG[dOrn]PYK[ΔZArg]-OH) | − (>32 μg/mL) | + (≤32 μg/mL) | > 300 | + (≤32 μg/mL) | − (>32 μg/mL) |  | 
C[C@H](O)[C@H](NC(=O)[C@@H](NC(=O)[C@@H](N)CCCCN)[C@@H](O)CN)C(=O)NCC(=O)N[C@H](CCCN)C(=O)N1CCC[C@H]1C(=O)N[C@@H](Cc1cnc[nH]1)C(=O)N[C@@H](CCCCN)C(=O)N/C(=C\CCNC(=N)N)C(=O)N[C@@H](CCCCN)C(=O)NCCCCN [25.1] (H-K[Dab(3S-OH)][aThr]G[dOrn]PHK[ΔZArg]K-{NH(CH2)4NH2}) | − (>32 μg/mL) | ++ (≤8 μg/mL) |  | ++ (≤8 μg/mL) | + (≤32 μg/mL) | < 30 | 3
